From US20250236599A1, “LIPID NANOPARTICLES FOR OLIGONUCLEOTIDE DELIVERY” (ZIPHIUS NV, priority 2021, published 2025)

Columns and labels:
[1] = Weight evolution of the animals following administration of LNPs; assay type: in vivo; details: female SWISS mice
Protocol: (§1) Female SWISS mice (6 weeks old) were purchased from Janvier Laboratories (Paris, France) and kept in individually ventilated cages with access to food and water ad libitum. Mice were anesthetized with isoflurane (Zoetis, Louvain-La-Neuve, Belgium) (5% for induction and 2% for maintenance) and intramuscularly injected with a total of 1 μg in 100 μL Tris-HCL (50 μL per leg) LNP-formulated luciferase saRNA (for each group n=7). The expression of the luciferase induced bioluminescence was measured via non-invasive In vivo bioluminescent imaging (In vivo Imaging System (IVIS) Lumina III, Perkin Elmer, Waltham, Massachusetts, USA), 10 minutes after subcutaneous injection of […] of D-luciferin (GoldBio, Saint Louis, Missouri, USA, #LUCK-1G) were measured in day 0 (before injection), day 1, day 3, day 5, day 7, day 10, day 15 and day 20.

[2] = saRNA loading / encapsulation efficiency, Quant-IT RiboGreen assay; assay type: physicochemical; details: LNP lipid:DOPE:Cholesterol:DMG-PEG 35:20:43.5:1.5, firefly luciferase saRNA
Protocol: The saRNA loading in LNP formulations was quantified using a Quant-IT RiboGreen assay (Thermo Fisher Scientific, Waltham, Massachusetts, USA) as previously described. 14 samples were diluted tenfold in 1x Tris HCL-EDTA (TE) buffer (10 mM Tris-HCL, 1 mM EDTA, pH 7.5) with or without 2% (v/v) Triton X-100 (Sigma-Aldrich, Saint Louis, Missouri, USA). Standard solutions were also prepared in 1xTE with or without 2% (v/v) Triton X-100 to account for any variation in fluorescence. The assay was performed according to the manufacturer's protocol. Samples were loaded on a black 96-well plate and analysed for fluorescence on a microplate reader (Tecan Infinite® 200 PRO) at an excitation of 485 nm and emission at 528 nm. Encapsulation efficiency was calculated between 80-100%.

[3] = LNP particle size, polydispersity index and charge by Zeta Sizer; assay type: physicochemical; details: LNP lipid:DOPE:Cholesterol:DMG-PEG 35:20:43.5:1.5, firefly luciferase saRNA; for Polydispersity Index (PI) / Z-average (nm): N/P approx. 40/1
Protocol: Cationic lipids, DOPE, Cholesterol and DMG-PEG lipid were solubilized in ethanol or DMSO at a molar ratio of 35:20:43.5:1.5 and a concentration of 100:25:20:25 μg/μL for C12-200 or 170:25:20:25 μg/μL for the comparator lipids. Lipid nanoparticles (LNP) were prepared by targeting an N/P ratio of approximately 40/1 with saRNA. Briefly, the firefly luciferase saRNA of approximately 9659 nucleotides was diluted to 0.5 mg/mL in 5 mM citrate buffer, pH 4.5. Microfluidic mixer (Ignite from Precision Nanosystems, California, USA) was used to mix the lipid solution with the saRNA aqueous solution at a ratio of about 1:3 (vol/vol) with total flow rates above 10 ml/min. The ethanol was then removed, and the external buffer replaced with 10 mM TRIS-HCL, PH 7.4, by dialysis. Finally, the lipid nanoparticles were filtered through a 0.2 μm pore sterile filter. Lipid nanoparticle particle size was 50-150 nm diameter and polydispersity index (PI) of 0.1-0.4 as determined by Zeta Sizer (Malvern Panalytical, UK). The charge of the formulation was also measured by Zeta Sizer and ranged between 20 to −20 mV.

[4] = test system: expression of the luciferase saRNA; assay: In vivo bioluminescent imaging after intramuscular injection of LNP-formulated luciferase saRNA; details: 1 μg LNP-formulated luciferase saRNA intramuscularly, female SWISS mice
Protocol: as §1

[5] = Day 1, 1 μg LNP-formulated saRNA intramuscularly
[6] = Day 3, 1 μg LNP-formulated saRNA intramuscularly
[7] = Day 5, 1 μg LNP-formulated saRNA intramuscularly
[8] = Day 7, 1 μg LNP-formulated saRNA intramuscularly
[9] = Day 10, 1 μg LNP-formulated saRNA intramuscularly
[10] = Day 15, 1 μg LNP-formulated saRNA intramuscularly
[11] = Day 20, 1 μg LNP-formulated saRNA intramuscularly

Structure (SMILES) | Weight ([1]; Day 0) | Weight [1, 5] | Weight [1, 6] | Weight [1, 7] | Weight [1, 8] | Weight [1, 9] | Weight [1, 10] | Weight [1, 11] | Encapsulation (%) [2] | Zetapotential (mV) [3] | Polydispersity Index (PI) [3] | Z-average (nm) [3] | Bioluminescence expression of LNPs ([4]; Day 1) | Bioluminescence expression of LNPs ([4]; Day 3) | Bioluminescence expression of LNPs ([4]; Day 5) | Bioluminescence expression of LNPs ([4]; Day 7) | Bioluminescence expression of LNPs ([4]; Day 10) | Bioluminescence expression of LNPs ([4]; Day 15) | Bioluminescence expression of LNPs ([4]; Day 20)
CCCCCCC(CCCC)C(=O)OCCN(CCOC(=O)C(CCCC)CCCCCC)CCN(CCOC(=O)C(CCCC)CCCCCC)CCN1CCN(CCN(CCOC(=O)C(CCCC)CCCCCC)CCOC(=O)C(CCCC)CCCCCC)CC1 (stereo not drawn) [Compound 9-26, ((2-(4-(2-((2-(bis(2-((2-butyloctanoyl)oxy)ethyl)amino)ethyl) (2-((2-butyloctanoyl)oxy)ethyl)amino)ethyl)piperazin-1-yl)ethyl)azanediyl) bis(ethane-2,1-diyl)bis(2-butyloctanoate)] | 27.91 g | 27.31 g | 28.51 g | 28.46 g | 28.44 g | 29.13 g | 30.50 g | 32.44 g | 92.78% | −18.67 mV | 0.28 | 100.07 nm | 8.16E+06 | 2.76E+08 | 6.92E+08 | 6.31E+08 | 2.23E+07 | 4.91E+05 | 7.78E+04
CCCCCCC(CCCC)C(=O)OCCCCN(CCCCOC(=O)C(CCCC)CCCCCC)CCN1CCN(CCN(CCCCOC(=O)C(CCCC)CCCCCC)CCCCOC(=O)C(CCCC)CCCCCC)CC1 (stereo not drawn) [Compound 9-33, ((piperazine-1,4-diylbis(ethane-2,1-diyl))bis(azanetriyl))tetrakis(butane-4,1-diyl) tetrakis(2-butyloctanoate)] | 26.83 g | 25.36 g | 27.37 g | 26.96 g | 27.29 g | 27.20 g | 28.79 g | 29.60 g | 92.26% | −13.70 mV | 0.22 | 86.24 nm | 3.79E+07 | 6.90E+08 | 1.45E+09 | 1.02E+09 | 5.76E+06 | 5.96E+05 | 1.21E+05
CCCCCCCCC(CCCCCC)C(=O)OCCCCN(CCCCOC(=O)C(CCCCCC)CCCCCCCC)CCN(CCCCOC(=O)C(CCCCCC)CCCCCCCC)CCN1CCN(CCN(CCCCOC(=O)C(CCCCCC)CCCCCCCC)CCCCOC(=O)C(CCCCCC)CCCCCCCC)CC1 (stereo not drawn) [Compound 9-30, ((2-(4-(2-((2-(bis(4-((2-hexyldecanoyl)oxy)butyl)amino)ethyl) (4-((2-hexyldecanoyl)oxy)butyl)amino)ethyl)piperazin-1-yl)ethyl)azanediyl) bis(butane-4,1-diyl)bis(2-hexyldecanoate)] | 29.39 g | 28.23 g | 29.73 g | 29.77 g | 30.46 g | 31.20 g | 30.96 g | 32.00 g | 94.22% | −8.56 mV | 0.17 | 115.36 nm | 2.31E+06 | 2.87E+07 | 6.18E+07 | 9.09E+07 | 2.84E+07 | 1.67E+05 | 1.67E+05
CCCCCCCCC(CCCCCC)C(=O)OCCN(CCOC(=O)C(CCCCCC)CCCCCCCC)CCN(CCOC(=O)C(CCCCCC)CCCCCCCC)CCN1CCN(CCN(CCOC(=O)C(CCCCCC)CCCCCCCC)CCOC(=O)C(CCCCCC)CCCCCCCC)CC1 (stereo not drawn) [Compound 9-29, ((2-(4-(2-((2-(bis(2-((2-hexyldecanoyl)oxy)ethyl)amino)ethyl) (2-((2-hexyldecanoyl)oxy)ethyl)amino)ethyl)piperazin-1-yl)ethyl)azanediyl)bis(ethane-2,1-diyl) bis(2-hexyldecanoate)] | 29.59 g | 29.53 g | 29.74 g | 30.04 g | 30.93 g | 30.63 g | 30.89 g | 32.69 g | 94.31% | −10.51 mV | 0.15 | 102.48 nm | 4.13E+05 | 1.68E+07 | 4.25E+07 | 6.13E+07 | 3.92E+07 | 1.44E+06 | 5.43E+05

Further lines, with some results ahead:

Weight ([1]; Day 0) | Weight [1, 5] | Weight [1, 6] | Weight [1, 7] | Weight [1, 8] | Weight [1, 9] | Weight [1, 10] | Weight [1, 11] | Encapsulation (%) [2] | Zetapotential (mV) [3] | Polydispersity Index (PI) [3] | Z-average (nm) [3] | Structure (SMILES) | Bioluminescence expression of LNPs ([4]; Day 1) | Bioluminescence expression of LNPs ([4]; Day 3) | Bioluminescence expression of LNPs ([4]; Day 5) | Bioluminescence expression of LNPs ([4]; Day 7) | Bioluminescence expression of LNPs ([4]; Day 10) | Bioluminescence expression of LNPs ([4]; Day 15) | Bioluminescence expression of LNPs ([4]; Day 20)
28.21 g | 26.73 g | 28.81 g | 28.84 g | 28.84 g | 29.36 g | 30.63 g | 31.61 g | 92.32% | −9.93 mV | 0.27 | 89.43 nm | CCCCCCCCC(CCCCCC)C(=O)OCCCCCCN(CCCCCCOC(=O)C(CCCCCC)CCCCCCCC)CCN1CCN(CCN(CCCCCCOC(=O)C(CCCCCC)CCCCCCCC)CCCCCCOC(=O)C(CCCCCC)CCCCCCCC)CC1 (stereo not drawn) [Compound 9-37, ((piperazine-1,4-diylbis(ethane-2,1-diyl))bis(azanetriyl)) tetrakis(hexane-6,1-diyl) tetrakis(2-hexyldecanoate)] | 1.07E+07 | 2.06E+08 | 4.17E+08 | 3.54E+08 | 2.11E+06 | 7.50E+04 | 2.65E+04
29.09 g | 29.49 g | 31.49 g | 30.09 g | 30.36 g | 30.56 g | 31.33 g | 32.30 g | 96.25% | −10.52 mV | 0.20 | 105.70 nm | CCCCCCCCC(CCCCCC)C(=O)OCCCCN(CCCCOC(=O)C(CCCCCC)CCCCCCCC)CCN1CCN(CCN(CCCCOC(=O)C(CCCCCC)CCCCCCCC)CCCCOC(=O)C(CCCCCC)CCCCCCCC)CC1 (stereo not drawn) [Compound 9-36, ((piperazine-1,4-diylbis(ethane-2,1-diyl))bis(azanetriyl))tetrakis(butane-4,1-diyl) tetrakis(2-hexyldecanoate)] | 4.28E+06 | 1.92E+08 | 8.44E+08 | 6.10E+08 | 5.56E+06 | 2.57E+05 | 1.16E+05
